Active and inactive are the calls of the source.
Columns and labels:
[1] = Counterscreen for activators of the function of SWI/SNF related, matrix associated, actin dependent regulator of chromatin, subfamily a, member 2 (SMARCA2, BRM): Luminescence-based cell-based high throughput dose response assay to identify non-selective compounds using the VP16 reporter assay.; assay type: functional
[2] = target: SWI/SNF-related matrix-associated actin-dependent regulator of chromatin subfamily A member 2 (Homo sapiens, UniProt P51531); assay: Luminescence-based cell-based high throughput dose response assay to identify activators of the function of SWI/SNF related, matrix associated, actin dependent regulator of chromatin, subfamily a, member 2 (SMARCA2, BRM).; assay type: functional
Sequence of SWI/SNF-related matrix-associated actin-dependent regulator of chromatin subfamily A member 2 (P51531 whole entry): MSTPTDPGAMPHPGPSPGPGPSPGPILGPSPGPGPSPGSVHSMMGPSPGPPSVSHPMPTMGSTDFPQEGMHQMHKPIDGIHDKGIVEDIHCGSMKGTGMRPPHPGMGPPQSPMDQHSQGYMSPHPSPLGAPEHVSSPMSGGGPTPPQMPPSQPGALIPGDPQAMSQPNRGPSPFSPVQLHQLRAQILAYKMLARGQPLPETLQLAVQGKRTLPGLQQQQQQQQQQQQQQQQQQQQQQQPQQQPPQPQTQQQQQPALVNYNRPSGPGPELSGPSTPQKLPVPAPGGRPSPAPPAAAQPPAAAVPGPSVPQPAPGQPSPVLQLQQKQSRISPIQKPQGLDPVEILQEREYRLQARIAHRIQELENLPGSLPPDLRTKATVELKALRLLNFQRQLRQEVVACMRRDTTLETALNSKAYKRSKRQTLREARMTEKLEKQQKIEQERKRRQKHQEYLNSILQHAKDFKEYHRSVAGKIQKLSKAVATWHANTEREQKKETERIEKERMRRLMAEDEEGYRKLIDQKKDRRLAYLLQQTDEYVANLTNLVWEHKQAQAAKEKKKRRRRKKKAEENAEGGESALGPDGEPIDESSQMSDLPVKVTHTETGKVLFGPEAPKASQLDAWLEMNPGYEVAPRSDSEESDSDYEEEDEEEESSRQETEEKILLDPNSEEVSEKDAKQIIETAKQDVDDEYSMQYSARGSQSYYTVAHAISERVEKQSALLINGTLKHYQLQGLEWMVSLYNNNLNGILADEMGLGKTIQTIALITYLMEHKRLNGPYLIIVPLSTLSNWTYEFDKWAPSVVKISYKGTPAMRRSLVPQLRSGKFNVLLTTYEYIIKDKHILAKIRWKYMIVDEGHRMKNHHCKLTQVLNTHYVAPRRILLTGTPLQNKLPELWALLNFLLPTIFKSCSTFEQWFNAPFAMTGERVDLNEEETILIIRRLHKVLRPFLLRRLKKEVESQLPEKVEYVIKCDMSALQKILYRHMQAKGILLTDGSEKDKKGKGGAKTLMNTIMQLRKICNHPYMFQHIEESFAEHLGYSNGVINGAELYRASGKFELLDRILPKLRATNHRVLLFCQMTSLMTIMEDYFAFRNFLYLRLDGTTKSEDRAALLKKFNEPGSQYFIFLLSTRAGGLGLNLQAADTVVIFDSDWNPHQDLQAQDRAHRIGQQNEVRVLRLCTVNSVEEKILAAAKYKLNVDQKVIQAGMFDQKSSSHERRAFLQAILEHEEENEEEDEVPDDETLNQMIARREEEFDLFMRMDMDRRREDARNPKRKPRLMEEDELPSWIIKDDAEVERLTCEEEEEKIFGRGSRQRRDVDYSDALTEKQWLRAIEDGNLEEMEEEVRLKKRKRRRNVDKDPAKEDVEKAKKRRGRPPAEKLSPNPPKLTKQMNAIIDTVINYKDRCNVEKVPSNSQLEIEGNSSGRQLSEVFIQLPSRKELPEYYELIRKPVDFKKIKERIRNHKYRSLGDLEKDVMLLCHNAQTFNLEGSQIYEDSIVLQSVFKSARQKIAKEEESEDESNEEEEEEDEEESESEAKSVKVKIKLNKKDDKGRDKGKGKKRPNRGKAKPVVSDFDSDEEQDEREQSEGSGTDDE

[3] = target: Benomyl/methotrexate resistance protein (Candida albicans, UniProt P28873); assay: Candida albicans Mdr1 pump inhibition curves – singleplex, Cherry Pick1 hits, dose response (AID 588608); assay type: functional
[4] = target: T1, Sentrin-specific protease 1 (Homo sapiens, UniProt Q9P0U3); assay: Dose response confirmation of small molecule inhibitors of the catalytic domain of the SUMO protease, SENP1 in a FRET assay.; assay type: functional; settings: read-out: IC50_Mean
T1 sequence (Q9P0U3 whole entry): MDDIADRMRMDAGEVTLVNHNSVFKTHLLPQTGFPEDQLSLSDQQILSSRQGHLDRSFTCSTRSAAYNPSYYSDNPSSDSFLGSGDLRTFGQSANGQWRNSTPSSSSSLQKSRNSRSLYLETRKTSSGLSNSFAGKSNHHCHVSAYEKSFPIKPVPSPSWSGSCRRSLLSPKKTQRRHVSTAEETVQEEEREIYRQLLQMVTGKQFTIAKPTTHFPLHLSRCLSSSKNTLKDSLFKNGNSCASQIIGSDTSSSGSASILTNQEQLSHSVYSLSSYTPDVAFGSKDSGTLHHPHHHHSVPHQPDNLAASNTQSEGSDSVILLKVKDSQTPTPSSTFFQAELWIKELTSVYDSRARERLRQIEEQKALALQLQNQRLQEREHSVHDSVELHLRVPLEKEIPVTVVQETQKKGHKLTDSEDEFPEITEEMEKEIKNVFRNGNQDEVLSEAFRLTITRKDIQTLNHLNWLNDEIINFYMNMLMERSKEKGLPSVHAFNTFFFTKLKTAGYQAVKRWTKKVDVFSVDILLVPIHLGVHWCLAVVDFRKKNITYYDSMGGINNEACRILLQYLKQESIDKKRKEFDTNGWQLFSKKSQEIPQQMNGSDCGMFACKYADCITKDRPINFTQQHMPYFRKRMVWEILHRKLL

[5] = target: T1, Sentrin-specific protease 1; assay: SENP1 catalytic domain blockers, concentration series – biochemical, kinetic FRET, dose response (AID 651697); assay type: functional; settings: read-out: IC50_Mean
[6] = target: T2, Sentrin-specific protease 8 (Homo sapiens, UniProt Q96LD8); assay type: functional;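 also: kinetic enzyme assay of SENP8 cleaving a Nedd8 protein substrate, dose-response confirmation of screening hits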
T2 sequence (Q96LD8 whole entry): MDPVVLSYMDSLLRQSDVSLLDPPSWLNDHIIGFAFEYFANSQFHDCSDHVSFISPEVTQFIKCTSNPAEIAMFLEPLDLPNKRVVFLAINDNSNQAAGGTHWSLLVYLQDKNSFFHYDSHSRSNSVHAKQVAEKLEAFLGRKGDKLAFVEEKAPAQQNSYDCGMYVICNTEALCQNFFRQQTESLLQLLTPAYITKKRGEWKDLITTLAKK

[7] = target: Mitochondrial peptide methionine sulfoxide reductase (Bos taurus, UniProt P54149); assay type: functional;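 also: absorbance read-out, biochemical high-throughput dose-response screen for MsrA inhibitors, confirmatory; recombinant bovine MsrA coupled to E. coli TrxB with NADPH and selenocystamine; potency is for inhibitors of MsrA activity on DMSO substrate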
Sequence of Mitochondrial peptide methionine sulfoxide reductase (P54149 whole entry): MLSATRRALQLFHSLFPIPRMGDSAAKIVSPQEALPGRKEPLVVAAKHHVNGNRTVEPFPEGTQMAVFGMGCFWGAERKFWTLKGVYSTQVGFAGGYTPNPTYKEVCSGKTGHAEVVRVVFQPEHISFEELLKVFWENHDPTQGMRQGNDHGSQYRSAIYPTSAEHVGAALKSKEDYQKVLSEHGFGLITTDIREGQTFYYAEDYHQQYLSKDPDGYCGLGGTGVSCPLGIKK

Mu-type opioid receptor = Mu-type opioid receptor (Homo sapiens, UniProt P35372); assay type: functional, cell-based;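 also: U2OS cells with beta-arrestin recruitment to OPRM1 by beta-gal complementation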
Sequence of Mu-type opioid receptor (P35372 whole entry): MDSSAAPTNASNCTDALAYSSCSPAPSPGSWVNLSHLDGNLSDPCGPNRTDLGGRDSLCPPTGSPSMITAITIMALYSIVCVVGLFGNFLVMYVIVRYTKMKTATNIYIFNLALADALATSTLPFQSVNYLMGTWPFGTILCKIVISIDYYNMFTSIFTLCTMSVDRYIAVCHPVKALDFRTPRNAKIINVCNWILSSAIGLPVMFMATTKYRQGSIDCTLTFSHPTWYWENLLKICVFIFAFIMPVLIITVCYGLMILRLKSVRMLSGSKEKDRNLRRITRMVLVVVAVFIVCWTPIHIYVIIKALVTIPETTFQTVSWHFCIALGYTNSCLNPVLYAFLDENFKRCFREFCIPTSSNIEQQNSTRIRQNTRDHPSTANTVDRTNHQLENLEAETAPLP

[8] = target: T3, Rac GTPase-activating protein 1 (Homo sapiens, UniProt Q9H0H5); assay: blockers of MgcRacGAP-driven Rac1 GTP hydrolysis – biochemical, ADP Hunter fluorescence, primary and confirmatory, confirmation (AID 624330); assay type: functional
T3 sequence (Q9H0H5 whole entry): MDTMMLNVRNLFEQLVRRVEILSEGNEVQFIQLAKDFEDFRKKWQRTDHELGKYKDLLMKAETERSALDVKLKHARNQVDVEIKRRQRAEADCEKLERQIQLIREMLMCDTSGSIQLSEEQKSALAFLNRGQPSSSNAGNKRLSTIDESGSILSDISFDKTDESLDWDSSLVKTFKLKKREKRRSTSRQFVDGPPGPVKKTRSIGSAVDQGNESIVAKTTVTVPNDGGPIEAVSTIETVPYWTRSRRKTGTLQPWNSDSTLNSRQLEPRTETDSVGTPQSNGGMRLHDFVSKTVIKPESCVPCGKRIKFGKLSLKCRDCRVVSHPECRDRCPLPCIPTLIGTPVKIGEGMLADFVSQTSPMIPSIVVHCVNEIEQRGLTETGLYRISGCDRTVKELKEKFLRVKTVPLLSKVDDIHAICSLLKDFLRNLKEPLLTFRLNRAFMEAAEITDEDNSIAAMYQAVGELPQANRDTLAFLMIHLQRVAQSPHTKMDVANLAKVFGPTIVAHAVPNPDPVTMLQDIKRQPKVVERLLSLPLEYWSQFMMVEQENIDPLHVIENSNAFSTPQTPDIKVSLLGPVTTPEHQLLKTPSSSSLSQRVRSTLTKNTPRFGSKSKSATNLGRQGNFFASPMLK

[9] = target: 5-hydroxytryptamine receptor 2A (Mus musculus, UniProt P35363); assay type: functional, cell-based;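 also: CHO-K1 cells with tagged receptor and beta-arrestin; agonist potency measured as compound-induced activation of the receptor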
Sequence of 5-hydroxytryptamine receptor 2A (P35363 whole entry): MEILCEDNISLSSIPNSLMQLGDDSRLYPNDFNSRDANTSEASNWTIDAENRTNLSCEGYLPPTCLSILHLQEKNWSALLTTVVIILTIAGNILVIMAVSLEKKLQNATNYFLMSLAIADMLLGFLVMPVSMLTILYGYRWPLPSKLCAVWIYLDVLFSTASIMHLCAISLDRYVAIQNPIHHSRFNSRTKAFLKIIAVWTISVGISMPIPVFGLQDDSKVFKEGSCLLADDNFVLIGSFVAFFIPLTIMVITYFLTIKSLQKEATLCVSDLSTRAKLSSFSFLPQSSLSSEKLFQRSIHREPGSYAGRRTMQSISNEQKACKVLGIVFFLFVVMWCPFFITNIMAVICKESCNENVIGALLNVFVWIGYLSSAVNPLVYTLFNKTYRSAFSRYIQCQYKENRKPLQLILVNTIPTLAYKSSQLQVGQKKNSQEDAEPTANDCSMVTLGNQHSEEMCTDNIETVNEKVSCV

[10] = target: T4, Histone-lysine N-methyltransferase NSD2 (Homo sapiens, UniProt O96028); assay type: biochemical
T4 sequence (O96028 whole entry): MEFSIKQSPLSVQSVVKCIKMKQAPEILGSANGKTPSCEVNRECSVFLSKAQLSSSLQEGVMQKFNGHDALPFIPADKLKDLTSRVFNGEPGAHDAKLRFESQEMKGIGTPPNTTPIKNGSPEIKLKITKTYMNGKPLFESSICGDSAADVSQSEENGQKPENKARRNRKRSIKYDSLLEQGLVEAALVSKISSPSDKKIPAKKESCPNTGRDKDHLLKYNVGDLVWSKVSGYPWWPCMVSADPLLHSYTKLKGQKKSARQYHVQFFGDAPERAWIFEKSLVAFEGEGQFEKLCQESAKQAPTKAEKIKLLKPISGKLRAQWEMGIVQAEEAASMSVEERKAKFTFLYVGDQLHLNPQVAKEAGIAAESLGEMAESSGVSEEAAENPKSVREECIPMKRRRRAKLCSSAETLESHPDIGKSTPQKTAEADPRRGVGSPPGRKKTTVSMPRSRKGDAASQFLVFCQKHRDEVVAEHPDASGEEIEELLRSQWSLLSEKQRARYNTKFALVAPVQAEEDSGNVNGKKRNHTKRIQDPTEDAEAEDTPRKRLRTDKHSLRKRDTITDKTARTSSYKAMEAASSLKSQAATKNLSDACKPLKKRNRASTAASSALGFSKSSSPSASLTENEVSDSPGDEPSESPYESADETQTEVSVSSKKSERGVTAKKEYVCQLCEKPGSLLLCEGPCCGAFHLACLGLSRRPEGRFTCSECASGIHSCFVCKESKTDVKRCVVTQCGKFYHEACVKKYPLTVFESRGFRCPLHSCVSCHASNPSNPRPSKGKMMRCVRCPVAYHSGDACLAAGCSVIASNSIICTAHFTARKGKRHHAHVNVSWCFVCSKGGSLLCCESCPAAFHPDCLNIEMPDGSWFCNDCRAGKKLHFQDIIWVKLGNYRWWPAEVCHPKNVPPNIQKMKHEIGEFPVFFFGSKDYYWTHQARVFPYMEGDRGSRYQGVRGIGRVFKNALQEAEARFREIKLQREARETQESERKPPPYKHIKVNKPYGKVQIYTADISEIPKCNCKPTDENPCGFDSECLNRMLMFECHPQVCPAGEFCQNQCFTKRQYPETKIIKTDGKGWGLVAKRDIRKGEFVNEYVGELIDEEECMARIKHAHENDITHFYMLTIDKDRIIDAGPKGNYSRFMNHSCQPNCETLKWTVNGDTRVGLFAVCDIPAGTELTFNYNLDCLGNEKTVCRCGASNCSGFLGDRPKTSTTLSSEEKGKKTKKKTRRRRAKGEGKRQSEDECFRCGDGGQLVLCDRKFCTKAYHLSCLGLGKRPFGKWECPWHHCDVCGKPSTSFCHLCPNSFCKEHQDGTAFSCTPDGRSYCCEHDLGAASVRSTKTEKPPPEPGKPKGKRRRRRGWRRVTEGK

[11] = target: Eukaryotic translation initiation factor 4E (Mus musculus, UniProt P63073); assay: blockers of eIF4G binding by eIF4E – biochemical, TR-FRET, dose response (AID 855); assay type: functional;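 also: potency for disrupting eIF4E binding to eIF4GI seen as loss of FRET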
Sequence of Eukaryotic translation initiation factor 4E (P63073 whole entry): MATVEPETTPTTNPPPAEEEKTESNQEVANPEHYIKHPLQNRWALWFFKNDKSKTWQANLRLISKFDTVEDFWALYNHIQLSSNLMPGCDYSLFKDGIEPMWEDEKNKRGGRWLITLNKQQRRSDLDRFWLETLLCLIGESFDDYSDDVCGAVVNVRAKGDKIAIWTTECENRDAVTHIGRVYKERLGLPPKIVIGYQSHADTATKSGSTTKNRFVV

Genome polyprotein = Genome polyprotein (dengue virus type 2, UniProt P29990); assay: flavivirus cap methylation enzyme inhibition – biochemical, confirmation dose response, primary screen (AID 588689); assay type: functional
Sequence of Genome polyprotein (P29990 2492-3391 limits assumed): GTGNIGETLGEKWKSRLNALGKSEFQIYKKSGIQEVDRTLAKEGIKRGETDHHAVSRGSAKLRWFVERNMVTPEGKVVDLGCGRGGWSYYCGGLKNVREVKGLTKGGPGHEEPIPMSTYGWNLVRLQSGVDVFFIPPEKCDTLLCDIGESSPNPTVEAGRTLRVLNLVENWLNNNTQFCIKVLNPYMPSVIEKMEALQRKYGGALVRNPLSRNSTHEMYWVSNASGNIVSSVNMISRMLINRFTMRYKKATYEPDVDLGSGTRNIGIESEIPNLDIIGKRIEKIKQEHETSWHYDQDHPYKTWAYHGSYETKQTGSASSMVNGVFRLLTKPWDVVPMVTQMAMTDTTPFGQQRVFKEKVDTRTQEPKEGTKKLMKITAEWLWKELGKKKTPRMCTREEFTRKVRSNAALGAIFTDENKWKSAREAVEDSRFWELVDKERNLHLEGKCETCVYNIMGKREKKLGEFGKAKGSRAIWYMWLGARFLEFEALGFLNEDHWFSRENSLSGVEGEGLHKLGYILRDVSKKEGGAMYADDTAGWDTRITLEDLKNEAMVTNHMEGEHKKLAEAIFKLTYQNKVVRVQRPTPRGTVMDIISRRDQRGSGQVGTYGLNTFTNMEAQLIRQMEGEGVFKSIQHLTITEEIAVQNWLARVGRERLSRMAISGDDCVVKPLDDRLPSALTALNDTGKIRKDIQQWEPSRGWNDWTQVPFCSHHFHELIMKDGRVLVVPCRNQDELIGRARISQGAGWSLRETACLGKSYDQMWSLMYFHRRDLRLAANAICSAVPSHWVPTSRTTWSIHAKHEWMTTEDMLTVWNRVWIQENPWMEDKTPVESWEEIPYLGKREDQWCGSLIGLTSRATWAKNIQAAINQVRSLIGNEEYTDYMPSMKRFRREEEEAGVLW

Vero [12] = assay: viability of Vero cells under compound – cytotoxicity control for flavivirus capping enzyme inhibitors (AID 588742); assay type: functional; settings: Chlorocebus sabaeus
[13] = target: T5, Mannose-6-phosphate isomerase (Homo sapiens, UniProt P34949); assay: MPI inhibition at elevated mannose 6-phosphate – biochemical, fluorescence intensity, high mannose 6-phosphate, primary screen (AID 1220)
T5 sequence (P34949 whole entry): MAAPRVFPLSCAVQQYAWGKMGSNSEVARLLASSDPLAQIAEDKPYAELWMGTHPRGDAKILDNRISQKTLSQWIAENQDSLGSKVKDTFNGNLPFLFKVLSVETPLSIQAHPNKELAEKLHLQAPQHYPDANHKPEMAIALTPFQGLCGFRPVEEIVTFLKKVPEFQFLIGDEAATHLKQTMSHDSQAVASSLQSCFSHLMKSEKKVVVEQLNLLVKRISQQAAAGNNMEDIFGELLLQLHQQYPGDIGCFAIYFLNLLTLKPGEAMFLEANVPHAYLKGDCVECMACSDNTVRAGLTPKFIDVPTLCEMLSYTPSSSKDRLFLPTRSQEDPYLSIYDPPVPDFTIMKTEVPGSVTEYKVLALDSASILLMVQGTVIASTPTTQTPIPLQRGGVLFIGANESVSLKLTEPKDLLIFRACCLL

[14] = target: Induced myeloid leukemia cell differentiation protein Mcl-1 (Homo sapiens, UniProt Q07820); assay type: functional
Sequence of Induced myeloid leukemia cell differentiation protein Mcl-1 (Q07820 whole entry): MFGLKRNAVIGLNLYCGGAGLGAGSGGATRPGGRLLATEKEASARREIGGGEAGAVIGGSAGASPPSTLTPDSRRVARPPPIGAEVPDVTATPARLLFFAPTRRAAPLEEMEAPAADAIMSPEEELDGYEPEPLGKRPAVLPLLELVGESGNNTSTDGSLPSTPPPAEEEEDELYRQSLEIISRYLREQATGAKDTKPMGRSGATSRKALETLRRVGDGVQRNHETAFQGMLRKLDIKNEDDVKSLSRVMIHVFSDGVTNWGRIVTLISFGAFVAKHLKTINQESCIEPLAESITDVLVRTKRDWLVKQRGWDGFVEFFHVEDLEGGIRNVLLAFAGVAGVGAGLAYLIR

[15] = target: T6, High affinity choline transporter 1 (Homo sapiens, UniProt Q9GZV3); assay: human choline transporter blockers, potency – cell-based, 5-point CRC, membrane potential dye, dose response (AID 504840); assay type: functional
T6 sequence (Q9GZV3 whole entry): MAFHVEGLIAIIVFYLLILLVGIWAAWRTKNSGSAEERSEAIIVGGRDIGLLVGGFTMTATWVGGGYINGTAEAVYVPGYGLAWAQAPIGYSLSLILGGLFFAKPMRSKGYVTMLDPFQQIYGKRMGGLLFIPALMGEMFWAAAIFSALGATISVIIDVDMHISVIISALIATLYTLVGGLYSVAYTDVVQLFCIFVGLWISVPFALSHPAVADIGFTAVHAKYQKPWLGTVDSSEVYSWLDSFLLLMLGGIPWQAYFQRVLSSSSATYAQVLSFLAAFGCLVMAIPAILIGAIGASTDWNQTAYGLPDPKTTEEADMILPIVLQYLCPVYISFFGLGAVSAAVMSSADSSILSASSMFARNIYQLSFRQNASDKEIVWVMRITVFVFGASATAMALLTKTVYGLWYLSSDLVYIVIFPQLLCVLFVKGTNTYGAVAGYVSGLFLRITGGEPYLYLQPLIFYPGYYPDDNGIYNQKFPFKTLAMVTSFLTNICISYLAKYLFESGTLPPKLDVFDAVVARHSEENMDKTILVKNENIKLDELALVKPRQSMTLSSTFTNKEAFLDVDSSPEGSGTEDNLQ

[16] = target: T6, High affinity choline transporter 1; assay: human choline transporter blockers, potency – cell-based, 10-point CRC, membrane potential dye, dose response (AID 588401); assay type: functional;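 also: membrane potential dye fluorescence of choline-evoked depolarization via CHT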
Protein Wnt-3a = Protein Wnt-3a (Mus musculus, UniProt P27467); assay: antagonism of Wnt3a pathway luciferase reporter – Wnt-LIGHT cells, luminescence, selectivity assay for Gli-SUFU antagonist project, dose response (AID 651570); assay type: functional; settings: read-out: IC50_Mean;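 also: Wnt-LIGHT reporter cells stimulated with conditioned medium from Wnt3a-producing cells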
Sequence of Protein Wnt-3a (P27467 whole entry): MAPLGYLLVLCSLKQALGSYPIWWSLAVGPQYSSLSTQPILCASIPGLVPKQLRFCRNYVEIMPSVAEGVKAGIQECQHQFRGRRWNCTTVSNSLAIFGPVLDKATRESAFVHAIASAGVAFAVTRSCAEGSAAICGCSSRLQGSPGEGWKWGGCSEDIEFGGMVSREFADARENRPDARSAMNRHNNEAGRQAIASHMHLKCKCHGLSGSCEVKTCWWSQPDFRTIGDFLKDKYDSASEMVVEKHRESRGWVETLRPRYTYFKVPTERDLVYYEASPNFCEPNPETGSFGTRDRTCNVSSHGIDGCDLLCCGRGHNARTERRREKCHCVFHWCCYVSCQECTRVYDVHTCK

Vero [17] = assay: cells; assay type: functional; settings: Chlorocebus sabaeus

O=C(/C=C/c1ccc(-c2ccccc2)o1)c1ccccc1
EC50 [1]: > 91.2 µM (inactive)
EC50 [2]: > 91.2 µM (inactive)

O=C(COC(=O)c1c2ccccc2cc2ccccc12)Nc1ncc(C(F)(F)F)cc1Cl
EC50 [3]: 23 µM (active)

CC(=O)c1ccccc1Oc1nc(CN2CCOCC2)nc2scc(-c3cccs3)c12
IC50 [4]: 69.6 µM (inactive)
IC50 [5]: 26.6 µM (inactive)

O=[N+]([O-])c1c[cH-]c(N2CCN(Cc3ccccc3)CC2)c2[c+]1[n-]o[n+]2=O
IC50 [6]: 17.3 µM (active)

CC(Nc1c([N+](=O)[O-])c(=O)oc2ccccc12)c1ccccc1 (configuration not stated)
IC50 [7]: 125 µM (inactive)

COc1ccc(S(=O)(=O)N2CCC(N3CCN(Cc4ccccc4)CC3)CC2)cc1
EC50 (Mu-type opioid receptor): 92.4 µM (inactive)
IC50 [8]: 98.7 µM (active)
EC50 [9]: 76.1 µM (inactive)

COCC/N=c1\scc(-c2ccco2)n1/N=C/c1ccc(O)c(O)c1O
AC50 [10]: 1.16 µM (active)
IC50 [11]: 36 µM (inactive)
IC50 (Genome polyprotein): > 100 µM (active)
EC50 (Mu-type opioid receptor): 92.5 µM (inactive)
CC50 (Vero [12]): 38.6 µM (active)
EC50 [9]: 11.6 µM (inactive)
IC50 [13]: 32 µM (active)
IC50 [14]: 1.6 µM (active)

CNc1cc(Cl)nc(SC)n1
IC50 [15]: 3.92 µM (active)
IC50 [16]: 2.67 µM (active)

NC(=O)CC(NC(=O)c1ccccc1)c1ccc(N2CCCCCC2)c([N+](=O)[O-])c1 (configuration not stated)
IC50 [15]: 7.51 µM (active)
IC50 [16]: 6.21 µM (active)
IC50 (Protein Wnt-3a): 19.9 µM (active)

C/C(=N\Nc1ccc([N+](=O)[O-])cc1[N+](=O)[O-])C(C)C(C)C (configuration not stated)
IC50 [7]: 155 µM (inactive)

O=C(/C=C/c1ccc(O)cc1)c1ccc(O)cc1O [ISOLIQUIRITIGENIN]
CC50 (Vero [17]): > 25 µM (active)
EC50 [1]: > 91.1 µM (inactive)
EC50 [2]: > 91.1 µM (inactive)
